Experiment: from Suikov, S.; Kal'nits'kii, M.; Lutsik, O.; Plyushchakova, L.; Bondarenko, A.; Bogza, S.; Popov, A. (2007). Derivatives of 1,2,4-triazolo[4,3-b]pyridazin-6-ylhydrazine as a new training set for …

logP | SMILES
1.45 | CC(=NN=c1ccc2nncn2[nH]1)c1ccc(O)cc1
1.97 | COc1cccc(C(C)=NN=c2ccc3nncn3[nH]2)c1
1.89 | CC(=NN=c1ccc2nncn2[nH]1)c1ccccc1O
2.02 | CC(=NN=c1ccc2nncn2[nH]1)c1ccc(F)cc1
0.93 | CC(=NN=c1ccc2nncn2[nH]1)c1ccncc1
2.2 | CC(=NN=c1ccc2nncn2[nH]1)c1ccc(C)cc1
1.53 | COc1cc(C=NN=c2ccc3nncn3[nH]2)cc(OC)c1OC
1.46 | CC(=NN=c1ccc2nncn2[nH]1)c1cccc(O)c1
2.15 | CC/C(=N/Nc1ccc2nncn2n1)c1ccccc1
1.15 | CC(=NN=c1ccc2nncn2[nH]1)c1ccccn1
1.94 | COc1ccccc1C(C)=NN=c1ccc2nncn2[nH]1

— the SangsterLogP compilation
